In ChEMBL document CHEMBL2406914 (ACS Med Chem Lett, 2013):

What was measured:
Myoglobin = molecular target: T1, Myoglobin (Homo sapiens, UniProt P02144); assay: Inhibition of myoglobin (unknown origin)-mediated arachidonic acid oxidation using [14C]AA as substrate after 3 hrs by GC/NICI/MS analysis
T1 sequence (P02144 whole entry): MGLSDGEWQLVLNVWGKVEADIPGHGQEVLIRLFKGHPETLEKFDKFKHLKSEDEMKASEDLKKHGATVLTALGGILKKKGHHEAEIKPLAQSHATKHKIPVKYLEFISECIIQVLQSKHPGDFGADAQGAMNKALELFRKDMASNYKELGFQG

[1] = molecular target: T2, Prostaglandin G/H synthase 1 (Ovis aries, UniProt P05979); assay: Inhibition of ovine COX1-mediated arachidonic acid oxidation using [14C]AA as substrate after 5 mins by GC/NICI/MS analysis
T2 sequence (P05979 whole entry): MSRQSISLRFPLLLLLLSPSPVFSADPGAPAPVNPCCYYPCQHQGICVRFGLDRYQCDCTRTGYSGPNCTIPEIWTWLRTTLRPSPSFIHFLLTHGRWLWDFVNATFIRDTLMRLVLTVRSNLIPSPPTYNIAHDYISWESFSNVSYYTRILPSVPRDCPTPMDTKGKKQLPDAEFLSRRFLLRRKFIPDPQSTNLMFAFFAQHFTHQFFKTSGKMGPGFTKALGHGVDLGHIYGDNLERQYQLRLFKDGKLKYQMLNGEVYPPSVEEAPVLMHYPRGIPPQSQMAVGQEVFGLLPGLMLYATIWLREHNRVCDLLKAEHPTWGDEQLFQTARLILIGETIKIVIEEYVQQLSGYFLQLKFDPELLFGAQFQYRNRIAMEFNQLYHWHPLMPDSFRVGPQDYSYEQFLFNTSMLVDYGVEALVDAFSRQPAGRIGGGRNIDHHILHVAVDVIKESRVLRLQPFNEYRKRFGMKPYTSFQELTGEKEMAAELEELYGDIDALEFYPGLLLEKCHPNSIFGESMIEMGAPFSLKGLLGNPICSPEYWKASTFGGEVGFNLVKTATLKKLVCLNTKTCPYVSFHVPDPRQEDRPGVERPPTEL

HepG2 = assay: Cytotoxicity against human HepG2 cells assessed as intracellular ATP level after 24 hrs by luciferase reporter gene assay; type: cell-based; settings: HepG2, 24 h
[2] = Metabolic stability in rat liver microsomes assessed as compound remaining at 10 uM after 30 mins by LC-MS analysis; settings: human

| IC50 [1] | remaining at 0.5 h, 10 µM [2] | Structure (SMILES) | IC50 (Myoglobin) | EC50 (HepG2) |
| --- | --- | --- | --- | --- |
| 451 µM | 108% | O=C1NCc2cc(O)cnc2N1 | – | 4760 µM |
| > 1000 µM | 87% | Cc1nc2c(c(C)c1O)CNC(=O)N2 | – | 2960 µM |
| 198 µM | 97% | Cc1nc2c(c(C)c1O)COC(=O)N2 | – | > 5000 µM |

| Structure (SMILES) | IC50 [1] | remaining at 0.5 h, 10 µM [2] | IC50 (Myoglobin) | EC50 (HepG2) |
| --- | --- | --- | --- | --- |
| CC(=O)Nc1ccc(O)cc1 [ACETAMINOPHEN] | 372 µM | – | 2.3 µM | 594 µM |
